Activity calls are given as the source filed them. No cut-off for these calls is given here.
Tests used:
Felis catus [1] = species: Felis catus; assay: In vitro effect of GABA enhancement on single neurons in the cat spinal cord;; type: functional, organism-based
[2] = target: Gamma-aminobutyric acid receptor subunit gamma-1 (Rattus norvegicus, UniProt P23574); assay: In vitro affinity for GABA binding sites on purified synaptic membranes from rat brain
GABA transporter [3] = target: T1, GABA transporter (Rattus norvegicus, UniProt P31647+P23978+P31646+P48056); assay: In vitro effect on GABA uptake in a crude preparation of synaptosomes from rat brain; type: functional, subcellular
[4] = I/U ratio for neutral amino acids; type: functional
GABA transporter [5] = target: T1, GABA transporter; type: functional, subcellular, Brain
Description: In vitro effect on GABA uptake in a crude preparation of synaptosomes from rat brain.

[6] = target: T2, GABA-A receptor; anion channel (Homo sapiens) (UniProt P14867+P47870+P18507+P28472+P48169+Q99928+Q9UN88+P34903+O00591+O14764+Q8N1C3+P18505+P78334+P47869+P31644+Q16445); assay: In vitro effect on Gamma-aminobutyric acid agonism on single neurons of cat spinal cord (- is less active than GABA); type: functional, tissue-based; conditions: Felis catus, filed as partial agonist, target entry is the homologue from another species
[7] = I/U ratio for neutral amino acids.; type: functional
[8] = target: GABA-A receptor; anion channel
Description: In vitro affinity for GABA binding sites on purified synaptic membranes from rat brain.

[9] = target: T2, GABA-A receptor; anion channel (Homo sapiens); conditions: Felis catus; Spinal cord; filed as agonist
Felis catus [10] = species: Felis catus; assay: In vitro effect of Gamma-aminobutyric acid enhancement on single neurons of cat spinal cord (No significant activity); type: functional
Felis catus [11] = species: Felis catus; assay: In vitro effect of glycine antagonism on single neurons in the cat spinal cord; Glycine antagonists are indicated by the Delta symbol.; type: functional, organism-based; conditions: filed as antagonist
Felis catus [12] = species: Felis catus; assay: In vitro effect of Gamma-aminobutyric acid enhancement on single neurons of cat spinal cord (ND = no data, No significant activity); type: functional
Felis catus [13] = species: Felis catus; assay: In vitro effect of glycine antagonism on single neurons of cat spinal cord; Glycine antagonists are indicated by Delta symbol.; type: functional, organism-based; conditions: filed as antagonist
Felis catus [14] = species: Felis catus; assay: In vitro effect of Gamma-aminobutyric acid enhancement on single neurons of cat spinal cord; type: functional

Sequence of Gamma-aminobutyric acid receptor subunit gamma-1 (P23574 whole entry): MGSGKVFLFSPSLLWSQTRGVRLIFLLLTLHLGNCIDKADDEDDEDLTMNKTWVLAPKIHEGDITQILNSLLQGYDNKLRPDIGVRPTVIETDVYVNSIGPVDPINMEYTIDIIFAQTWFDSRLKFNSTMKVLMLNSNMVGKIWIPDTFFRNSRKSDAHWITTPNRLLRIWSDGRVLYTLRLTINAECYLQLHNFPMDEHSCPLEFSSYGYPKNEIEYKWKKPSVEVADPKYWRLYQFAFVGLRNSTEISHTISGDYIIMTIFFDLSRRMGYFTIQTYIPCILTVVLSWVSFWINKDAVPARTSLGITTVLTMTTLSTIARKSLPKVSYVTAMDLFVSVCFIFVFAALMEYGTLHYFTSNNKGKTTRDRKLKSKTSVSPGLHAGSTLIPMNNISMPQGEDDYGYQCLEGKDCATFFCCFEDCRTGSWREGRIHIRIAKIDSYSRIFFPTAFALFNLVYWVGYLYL
Description for physchem: Dissociation constant (pKa)

| SMILES | pKa (physchem) | IC50 (GABA transporter [5]) | IC50 [8] | Ratio [7] | also measured |
| --- | --- | --- | --- | --- | --- |
| Oc1noc2c1CNCC2 |  |  |  |  | GABA enhancement (Felis catus [1]): Active; IC50 [2]: 72 µM; IC50 (GABA transporter [3]): 160 µM; Ratio [4]: 2500 |
| COc1noc2c1CNCC2 | 7.7 |  |  |  |  |
| COc1noc2c1CCNC2 | 7.1 |  |  |  |  |
| Oc1nsc2c1CCNC2 | 6.1 | 220 µM | 42 µM | 16 | GABA agonism [6]: Partial agonist |
| NCCCC(=O)O |  |  |  |  | GABA agonism [9]: Agonist |
| Oc1noc2c1CCNCC2 | 4.8 | > 500 µM | 15 µM | 4000 | GABA enhancement (Felis catus [10]): inactive; Glycine antagonism (Felis catus [11]): Antagonist |
| O=C(O)N1CCc2onc(O)c2CC1 | 5.6 |  |  |  |  |
| Oc1nsc2c1CNCC2 | 6.1 | 230 µM | > 100 µM | 63 | GABA enhancement (Felis catus [14]): Active |

Second part, led by results:

| pKa (physchem) | IC50 (GABA transporter [5]) | IC50 [8] | SMILES | Ratio [7] | also measured |
| --- | --- | --- | --- | --- | --- |
| 5.3 |  |  | COC(=O)N1CCc2c(O)noc2C1 |  |  |
| 7.6 |  |  | COC(=O)N1CCc2snc(O)c2CC1 |  |  |
| 7.3 |  |  | COC(=O)N1CCc2c(O)nsc2C1 |  |  |
| 7.4 |  |  | COC(=O)N1CCc2snc(O)c2C1 |  |  |
|  | 400 µM | 31 µM | Oc1nsc2c1CCNCC2 | 200 | GABA enhancement (Felis catus [12]): inactive; Glycine antagonism (Felis catus [13]): Antagonist |
